Test results as given in patent US7064143B1, “Positive modulators of nicotinic receptor agonists” (AstraZeneca AB, priority 2000, dated 2006).

SMILES | melting point
Cn1c(C(=O)NC(CF)Cc2ccccc2)cc2c(O)cccc21 (single isomer, unassigned; (+)) [Example 29, (+)-N-(1-Fluoromethyl-2-phenylethyl)4-hydroxy-1-methyl-1H-indole-2-carboxamide] | 157 to 158 °C
Cn1c(C(=O)NC(CF)Cc2ccccc2)cc2c(O)cccc21 (centres unmarked) [Example 23, N-(1-Fluoromethyl-2-phenylethyl) 4-hydroxy-1-methyl-1H-indole-2-carboxamide] | 163.5 to 165.5 °C
